Assays:
[1] = 298.15 K, 101 kPa, Liquid; for viscosity: Capillary tube (Ostwald / Ubbelohde) method; for mass density: Pycnometric method
[2] = xn = mol fraction of the nth substance listed; conditions: 298.15 K, 101 kPa, Liquid; for viscosity: Capillary tube (Ostwald / Ubbelohde) method; for mass density: Pycnometric method

C1CCCCC1 [cyclohexane]
[1]
Conditions	mass density [kg/m3]	viscosity [mPa·s]
–	773.8	0.892

C1CCCCC1 [cyclohexane] + CCCOC(C)=O
[2], x1 = 1
Conditions	mass density [kg/m3]	viscosity [mPa·s]
–	773.8	0.892

C1CCCCC1 [cyclohexane] + CCOC(C)=O
[2], x1 = 1
Conditions	mass density [kg/m3]	viscosity [mPa·s]
–	773.8	0.892

C1CCCCC1 [cyclohexane] + COC(C)=O
[2], x1 = 1
Conditions	mass density [kg/m3]	viscosity [mPa·s]
–	773.8	0.892

C1CCCCC1 [cyclohexane] + O=C1CCCCC1
[2], x1 = 1
Conditions	mass density [kg/m3]	viscosity [mPa·s]
–	773.8	0.892

O=C1CCCCC1 [cyclohexanone]
[1]
Conditions	mass density [kg/m3]	viscosity [mPa·s]
–	941.6	2.02

O=C1CCCCC1 [cyclohexanone] + C1CCCCC1
[2]
Conditions	mass density [kg/m3]	viscosity [mPa·s]
x2 = 0	941.6	2.02
x2 = 0.1147	921.8	1.813
x2 = 0.2257	903	1.638
x2 = 0.3332	884.8	1.475
x2 = 0.4374	867.1	1.335
x2 = 0.5384	849.6	1.225
x2 = 0.6363	832.5	1.126
x2 = 0.7313	816	1.038
x2 = 0.8235	800	0.965
x2 = 0.913	785.9	0.921

O=C1CCCCC1 [cyclohexanone] + CCCOC(C)=O
[2]
Conditions	mass density [kg/m3]	viscosity [mPa·s]
x1 = 0.1036	888.2	0.609
x1 = 0.2064	894.2	0.666
x1 = 0.3084	900.4	0.731
x1 = 0.4096	906.5	0.821
x1 = 0.5099	912.4	0.926
x1 = 0.6095	918.4	1.049
x1 = 0.7083	924.3	1.199
x1 = 0.8063	930.2	1.407
x1 = 0.9035	936.1	1.685
x1 = 1	941.6	2.02

O=C1CCCCC1 [cyclohexanone] + CCOC(C)=O
[2]
Conditions	mass density [kg/m3]	viscosity [mPa·s]
x1 = 0.0907	898.3	0.47
x1 = 0.1833	902.6	0.521
x1 = 0.2778	907.3	0.585
x1 = 0.3744	912.3	0.667
x1 = 0.473	917.5	0.764
x1 = 0.5738	922.6	0.892
x1 = 0.6769	927.6	1.058
x1 = 0.7822	932.6	1.289
x1 = 0.8899	937.3	1.604
x1 = 1	941.6	2.02

O=C1CCCCC1 [cyclohexanone] + COC(C)=O
[2]
Conditions	mass density [kg/m3]	viscosity [mPa·s]
x1 = 0.0774	927.4	0.407
x1 = 0.1587	928.5	0.445
x1 = 0.2444	929.9	0.504
x1 = 0.3347	931.3	0.577
x1 = 0.4301	932.9	0.666
x1 = 0.531	934.6	0.779
x1 = 0.6378	936.4	0.936
x1 = 0.7512	938.2	1.163
x1 = 0.8717	940.2	1.488
x1 = 1	941.6	2.02

CCOC(C)=O [ethyl acetate]
[1]
Conditions	mass density [kg/m3]	viscosity [mPa·s]
–	894.5	0.426

CCOC(C)=O [ethyl acetate] + C1CCCCC1
[2]
Conditions	mass density [kg/m3]	viscosity [mPa·s]
x2 = 0	894.5	0.426
x2 = 0.1042	877	0.432
x2 = 0.2074	861.2	0.436
x2 = 0.3097	847	0.441
x2 = 0.4111	833.9	0.462
x2 = 0.5115	822.1	0.493
x2 = 0.611	811.2	0.533
x2 = 0.7095	801.2	0.585
x2 = 0.8072	791.8	0.653
x2 = 0.904	782.7	0.749

CCOC(C)=O [ethyl acetate] + O=C1CCCCC1
[2], x2 = 0
Conditions	mass density [kg/m3]	viscosity [mPa·s]
–	894.5	0.426

COC(C)=O [methyl ethanoate]
[1]
Conditions	mass density [kg/m3]	viscosity [mPa·s]
–	926.8	0.38

COC(C)=O [methyl ethanoate] + C1CCCCC1
[2]
Conditions	mass density [kg/m3]	viscosity [mPa·s]
x2 = 0	926.8	0.38
x2 = 0.0891	903.7	0.381
x2 = 0.1804	883.3	0.383
x2 = 0.2739	864.7	0.388
x2 = 0.3698	848.5	0.407
x2 = 0.4681	833.1	0.437
x2 = 0.569	819.4	0.477
x2 = 0.6725	806.4	0.535
x2 = 0.7788	794.9	0.603
x2 = 0.8879	784.2	0.708

COC(C)=O [methyl ethanoate] + O=C1CCCCC1
[2], x2 = 0
Conditions	mass density [kg/m3]	viscosity [mPa·s]
–	926.8	0.38

CCCOC(C)=O [propyl ethanoate]
[1]
Conditions	mass density [kg/m3]	viscosity [mPa·s]
–	883	0.551

CCCOC(C)=O [propyl ethanoate] + C1CCCCC1
[2]
Conditions	mass density [kg/m3]	viscosity [mPa·s]
x2 = 0	883	0.551
x2 = 0.1188	868.5	0.54
x2 = 0.2328	854.7	0.548
x2 = 0.3421	841.8	0.554
x2 = 0.4472	829.9	0.572
x2 = 0.5482	819.3	0.587
x2 = 0.6454	809.3	0.625
x2 = 0.739	800	0.663
x2 = 0.8292	791.1	0.715
x2 = 0.9161	782.3	0.786

CCCOC(C)=O [propyl ethanoate] + O=C1CCCCC1
[2], x2 = 0
Conditions	mass density [kg/m3]	viscosity [mPa·s]
–	883	0.551
